Legend:
Type in all cases: in vivo
[1] = system: Alopecurus myosuroides (ALOMY); test: Pre-emergence biological efficacy, glasshouse pot test; conditions: 312 h, 1,000 g/ha, evaluated after 13 days, 100=total damage, 0=no damage, read-out: Percentage damage caused to weed species, pre-emergence, ALOMY
Experimental: (§1) Seeds of Alopecurus myosuroides (ALOMY), Setaria faberi (SETFA), Echinochloa crus-galli (ECHCG), Solanum nigrum (SOLNI), Amaranthus retroflexus (AMARE) and Ipomea hederaceae (IPOHE) were sown in standard soil in pots. After cultivation for one day under controlled conditions in a glasshouse (at 24/16° C., day/night; 14 hours light; 65% humidity), the plants were sprayed with an aqueous spray solution derived from the formulation of the technical active ingredient in acetone/water (50:50) solution containing 0.5% Tween 20 (polyoxyethylene sorbitan monolaurate, CAS RN 9005-64-5) to give a final dose of 1000 or 250 g/ha of test compound. The test plants were then grown under controlled conditions in the glasshouse (at 24/16° C., day/night; 14 hours light; 65% humidity) and watered twice daily. After 13 days the test was evaluated (100=total damage to plant; 0=no damage to plant).

[2] = system: Amaranthus retroflexus (AMARE); test: as above; conditions: 312 h, 1,000 g/ha, evaluated after 13 days, 100=total damage, 0=no damage, read-out: Percentage damage caused to weed species, pre-emergence, AMARE
Experimental: as §1

[3] = system: Echinochloa crus-galli (ECHCG); test: as above; conditions: 312 h, 1,000 g/ha, evaluated after 13 days, 100=total damage, 0=no damage, read-out: Percentage damage caused to weed species, pre-emergence, ECHCG
Experimental: as §1

[4] = system: Ipomea hederaceae (IPOHE); test: as above; conditions: Ipomoea hederacea, 312 h, 1,000 g/ha, evaluated after 13 days, 100=total damage, 0=no damage, read-out: Percentage damage caused to weed species, pre-emergence, IPOHE
Experimental: as §1

Setaria faberi (SETFA) [5] = test: as above; conditions: 312 h, 1,000 g/ha, evaluated after 13 days, 100=total damage, 0=no damage, read-out: Percentage damage caused to weed species, pre-emergence, SETFA
Experimental: as §1

Solanum nigrum (SOLNI) [6] = test: as above; conditions: 312 h, 1,000 g/ha, evaluated after 13 days, 100=total damage, 0=no damage, read-out: Percentage damage caused to weed species, pre-emergence, SOLNI
Experimental: as §1

[7] = system: Alopecurus myosuroides (ALOMY); test: Post-emergence biological efficacy, glasshouse pot test; conditions: 312 h, 1,000 g/ha, evaluated after 13 days, 100=total damage, 0=no damage, read-out: Percentage damage caused to weed species, post-emergence, ALOMY
Experimental: as §1, with “for 8 days” for “for one day”, “grown on” for “grown”, “in a” for “in the”

[8] = system: Amaranthus retroflexus (AMARE); test: as above; conditions: 312 h, 1,000 g/ha, evaluated after 13 days, 100=total damage, 0=no damage, read-out: Percentage damage caused to weed species, post-emergence, AMARE
Experimental: as §1, with “for 8 days” for “for one day”, “grown on” for “grown”, “in a” for “in the”

[9] = system: Echinochloa crus-galli (ECHCG); test: as above; conditions: 312 h, 1,000 g/ha, evaluated after 13 days, 100=total damage, 0=no damage, read-out: Percentage damage caused to weed species, post-emergence, ECHCG
Experimental: as §1, with “for 8 days” for “for one day”, “grown on” for “grown”, “in a” for “in the”

[10] = system: Ipomea hederaceae (IPOHE); test: as above; conditions: Ipomoea hederacea, 312 h, 1,000 g/ha, evaluated after 13 days, 100=total damage, 0=no damage, read-out: Percentage damage caused to weed species, post-emergence, IPOHE
Experimental: as §1, with “for 8 days” for “for one day”, “grown on” for “grown”, “in a” for “in the”

Setaria faberi (SETFA) [11] = test: as above; conditions: 312 h, 1,000 g/ha, evaluated after 13 days, 100=total damage, 0=no damage, read-out: Percentage damage caused to weed species, post-emergence, SETFA
Experimental: as §1, with “for 8 days” for “for one day”, “grown on” for “grown”, “in a” for “in the”

Solanum nigrum (SOLNI) [12] = test: as above; conditions: 312 h, 1,000 g/ha, evaluated after 13 days, 100=total damage, 0=no damage, read-out: Percentage damage caused to weed species, post-emergence, SOLNI
Experimental: as §1, with “for 8 days” for “for one day”, “grown on” for “grown”, “in a” for “in the”

| SMILES | pest or weed control at 1000 g/ha [1] [%] | pest or weed control at 1000 g/ha [2] [%] | pest or weed control at 1000 g/ha [3] [%] | pest or weed control at 1000 g/ha [4] [%] | pest or weed control at 1000 g/ha (Setaria faberi (SETFA) [5]) [%] | pest or weed control at 1000 g/ha (Solanum nigrum (SOLNI) [6]) [%] | pest or weed control at 1000 g/ha [7] [%] | pest or weed control at 1000 g/ha [8] [%] | pest or weed control at 1000 g/ha [9] [%] | pest or weed control at 1000 g/ha [10] [%] | pest or weed control at 1000 g/ha (Setaria faberi (SETFA) [11]) [%] | pest or weed control at 1000 g/ha (Solanum nigrum (SOLNI) [12]) [%] |
| --- | --- | --- | --- | --- | --- | --- | --- | --- | --- | --- | --- | --- |
| COC(=O)c1nc(Cl)c(Cl)c(NCc2ccccc2[N+](=O)[O-])c1C [Compound 15-43, 5,6-Dichloro-3-methyl-4-[(2-nitrophenyl-methyl)-amino]-pyridine-2-carboxylic acid methyl ester] | 0 | 90 | 0 | 50 | 0 | 70 | 40 | 100 | 10 | 70 | 40 | 100 |
| COC(=O)c1nc(Cl)c(Cl)c(NCc2ccccc2[N+](=O)[O-])c1C(F)(F)F [Compound 15-444, 5,6-dichloro-4-[(2-nitrophenyl-methyl)-amino]-3-trifluoromethyl-pyridine-2-carboxylic acid methyl ester] | 0 | 30 | 0 | 50 | 0 | 30 | 10 | 100 | 50 | 50 | 40 | 90 |
| COC(=O)c1nc(-c2ccc(Cl)c(OC)c2F)cc(NCc2ccc(OC)cc2OC)c1Cl [Compound 22-164, 3-Chloro-6-(4-chloro-2-fluoro-3-methoxy-phenyl)-4-[(2,4-dimethoxyphenyl-methyl)-amino]-pyridine-2-carboxylic acid methyl ester] | 20 | 80 | 60 | 70 | 10 | 80 | 0 | 100 | 60 | 70 | 60 | 90 |
| COC(=O)c1nc(Cl)cc(NCc2ccc3c(c2)OCO3)c1Cl [Compound 24-2, 3,6-Dichloro-4-[(3,4-methylenedioxy-phenylmethyl)-amino]-pyridine-2-carboxylic acid methyl ester] | 10 | 100 | 0 | 80 | 70 | 100 | 50 | 100 | 20 | 70 | 80 | 100 |
| COC(=O)c1nc(Cl)cc(NCc2ccco2)c1Cl [Compound 26-2, 3,6-dichloro-4-[(furan-2-ylmethyl)-amino]-pyridine-2-carboxylic acid methyl ester] | 70 | 100 | 30 | 90 | 90 | 100 | 40 | 100 | 30 | 60 | 90 | 100 |
| COC(=O)c1nc(Cl)cc(NCc2ccco2)c1C1CC1 [Compound 26-7, 6-chloro-3-cyclopropyl-4-[(furan-2-ylmethyl)-amino]-pyridine-2-carboxylic acid methyl ester] | 10 | 60 | 10 | 70 | 10 | 80 | 0 | 40 | 0 | 30 | 0 | 70 |
| C=Cc1c(NCc2ccco2)cc(Cl)nc1C(=O)O [Compound 26-11, 6-chloro-3-ethenyl-4-[(furan-2-ylmethyl)-amino]-pyridine-2-carboxylic acid] | 100 | 100 | 90 | 100 | 100 | 100 | 80 | 100 | 80 | 80 | 90 | 100 |
| C=Cc1c(NCc2ccco2)cc(Cl)nc1C(=O)OC [Compound 26-12, 6-Chloro-3-ethenyl-4-[(furan-2-ylmethyl)-amino]-pyridine-2-carboxylic acid methyl ester] | 90 | 100 | 90 | 90 | 100 | 100 | 80 | 100 | 80 | 70 | 90 | 100 |
| COC(=O)c1nc(Cl)cc(NCc2ccco2)c1Br [Compound 26-17, 3-Bromo-6-chloro-4-[(furan-2-ylmethyl)-amino]-pyridine-2-carboxylic acid methyl ester] | 50 | 100 | 50 | 100 | 80 | 100 | 70 | 100 | 60 | 60 | 80 | 90 |
| COC(=O)c1nc(Cl)cc(NCc2ccco2)c1C [Compound 26-19, 6-chloro-4-[(furan-2-ylmethyl)-amino]-3-methyl-pyridine-2-carboxylic acid methyl ester] | 70 | 100 | 0 | 40 | 70 | 100 | 60 | 100 | 30 | 40 | 70 | 90 |

— patent publication US20120100990A1, “4 -AMINOPICOLINATES AND THEIR USE AS HERBICIDES” (SYNGENTA CROP PROTECTION LLC, priority 2009, published 2012)
